Measurements reported in US10960017B2, “Sorafenib or regorafenib troxacitabine phosphoramidate prodrug combination therapy for liver cancer” (priority 2016, dated 2021).
Where two headings read alike, the source gives them in different places.

How the values were obtained:
[1] = system: human hepatocellular carcinoma cell line Hep3B; experiment: Combinatorial evaluation in cell culture (Hep3B proliferation, Cell Counting Kit-8, MacSynergy II); type: cell-based; settings: combination with sorafenib, Hep3B cells, 6 days incubation; for anti-proliferative interaction with sorafenib (MacSynergy II classification): 95% confidence; for log volume at 95% confidence (synergy volume calculated by MacSynergy II): log volumes >9 indicate strong synergy
Protocol: General Procedure for Combinatorial Evaluation in Cell Culture
For analysis of the human hepatocellular carcinoma cell line Hep3B, from DSMZ (ACC 93), was used. Hep3B cells were cultured as epithelial-like cells in monolayers in 90% MEM (with Earle's salts)+10% h.i. FBS+2 mM L-glutamine+50 u/ml Penicillin/0.05 mg/ml Streptomycin as culture medium. Confluent cultures were split 1:4 to 1:10 every 3-5 days using trypsin/EDTA, and re-seeded at 0.5−1×10^6 cells/80 cm^2.
Cell culture flask is washed 2 times with 5 ml PBS and PBS discarded. Add 1.5 ml of trypsin and put the flask into the incubator for 3-4 minutes. Shake the flask and add 10 ml of DMEM, 10% FCS, 50 μ/ml Penicillin/0.05 mg/ml Streptomycin without phenol red. The cells were counted using the Scepter cell counter, Hep3B cells were diluted to 20×10^3 cells/ml in complete cell medium without phenol red. 100 μl cell suspension/well was seeded in 96-well cell assay plates. Two replicate plates for each combination.
Test compounds were tested at nine concentrations, either 5 μM to 0.00076 μM or 10 μM to 0.0015 μM, in a 1:3 dilution series. Sorafenib was tested at seven concentrations, 20 μM to […], in a 1:2 dilution series. The four dilution plates were prepared with the Echo instrument.
The compound dilutions were 2 times the desired final concentrations. The volume in the dilution plates in each well are 125 μl of medium with compounds.
100 μl from the dilution plate with compounds in the different concentrations were transferred to the corresponding well of the cell assay plate with 100 μl, (200 μl/well in total volume). Incubate the plates for 6 days, at 37° C., 5% CO2.
10 μl of CCK Kit-8 was added to each well using a multi-channel pipette (submerging the tips below the surface in each well). Plates were incubated for 4 hours at 37° C., 5% CO2.
The plate was read in the spectrophotometer at a wavelength of 450 nm, with a reference filter of 650 nm. Average absorbance was >1 to <3 for the vehicle treated cell controls.
Raw data from the two plates of each combination were entered into the Mac Synergy II shareware where the combined effect was calculated and plotted in a 3D dose-response surface graph. Theoretical additive interactions are calculated from the dose response curves for each drug individually. Calculated additive surface is subtracted from experimentally determined dose-response surfaces to reveal regions of non-additive activity. The final results are given as synergy or antagonism volumes (μM^2%) according to guide lines given in the manual for MacSynergy II:
Synergy volumes: • 1. Values of synergy or antagonism under 25 μM^2% (log volumes <2) at 95% confidence should be regarded as insignificant and are probably not important. • 2. Values between 25 μM^2% and 50 μM^2% (log volumes >2 and <5) should be considered a minor but significant amount of synergy. • 3. Values between 50 μM^2% and 100 μM^2% (log volumes >5 and <9) indicate moderate synergy or antagonism. This interaction may be important in vivo. • 4. Values over 100 μM^2% (log volumes >9) indicate strong synergy and are probably important in vivo.

[2] = cited from earlier work

CC[C@@H](C)OC(=O)[C@@H](NP(=O)(OC[C@H]1OC[C@@H](n2ccc(N)nc2=O)O1)Oc1ccccc1)C(C)C (single isomer, unassigned) [Example 5]
anti-proliferative interaction with sorafenib (MacSynergy II classification) [1]: strong anti-proliferative synergy | log volume at 95% confidence (synergy volume calculated by MacSynergy II) [1]: 46

CCC[C@H](C)OC(=O)[C@H](C)NP(=O)(OC[C@H]1OC[C@@H](n2ccc(N)nc2=O)O1)Oc1ccccc1 (single isomer, unassigned) [Example 1]
anti-proliferative interaction with sorafenib (MacSynergy II classification) [1]: strong anti-proliferative synergy | log volume at 95% confidence (synergy volume calculated by MacSynergy II) [1]: 76

CCCC(CCC)COC(=O)[C@H](C)NP(=O)(OC[C@H]1OC[C@@H](n2ccc(N)nc2=O)O1)Oc1ccccc1 (single isomer, unassigned) [Example 3]
anti-proliferative interaction with sorafenib (MacSynergy II classification) [1]: strong anti-proliferative synergy | log volume at 95% confidence (synergy volume calculated by MacSynergy II) [1]: 32

CCC[C@H](C)OC(=O)[C@H](C)NP(=O)(OC[C@H]1OC[C@@H](n2ccc(N)nc2=O)O1)Oc1ccc(Br)cc1 (single isomer, unassigned) [Example 4]
anti-proliferative interaction with sorafenib (MacSynergy II classification) [1]: strong anti-proliferative synergy | log volume at 95% confidence (synergy volume calculated by MacSynergy II) [1]: 40

CC[C@@H](C)OC(=O)[C@H](C)NP(=O)(OC[C@H]1OC[C@@H](n2cc(F)c(N)nc2=O)O1)Oc1ccccc1 (single isomer, unassigned) [Example 2]
anti-proliferative interaction with sorafenib (MacSynergy II classification) [1]: strong anti-proliferative synergy | log volume at 95% confidence (synergy volume calculated by MacSynergy II) [1]: 11

CNC(=O)c1cc(Oc2ccc(NC(=O)Nc3ccc(Cl)c(C(F)(F)F)c3)cc2)ccn1.Cc1ccc(S(=O)(=O)O)cc1 [Sorafenib tosylate, 4-(4-{3-[4-Chloro-3(trifluoromethyl)phenyl]ureido}phenoxy) N-methylpyridine-2-carboxamide 4-methylbenzenesulfonate]
solubility ([2]; PEG 400): soluble | solubility ([2]; aqueous media): practically insoluble | solubility ([2]; ethanol): slightly soluble

CNC(=O)c1cc(Oc2ccc(NC(=O)Nc3ccc(Cl)c(C(F)(F)F)c3)c(F)c2)ccn1 [Regorafenib monohydrate, 4-[4-({[4-chloro-3-(trifluoromethyl)phenyl]carbamoyl}amino)-3-fluorophenoxy]-N-methylpyridine-2-carboxamide monohydrate]
solubility ([2]; acetone): sparingly soluble | solubility ([2]; acetonitrile): slightly soluble | solubility ([2]; aqueous media): practically insoluble | solubility ([2]; ethanol): slightly soluble | solubility ([2]; ethyl acetate): slightly soluble | solubility ([2]; methanol): slightly soluble
